Read-outs that look alike come from different tables or passages of the source.
Columns and labels:
VEGF [1] = experiment: VEGF expression at the cellular level (VEGF kit); assay type: cell-based; settings: Hep3B human hepatoma cell, 24 h after administration
Method: (§1) The test of the activity of some compounds of the present invention on VEGF at the cellular level and EPO at the cellular level is shown as follows. The method is in accordance with Bioorganic & Medicinal Chemistry Letters 23 (2013) 5953-5957, and the test was carried out by using VEGF and EPO kit respectively 24 h after administration.
(§2) Hep3B Cell: Human Hepatoma Cell

EPO [2] = experiment: EPO expression at the cellular level (EPO kit); assay type: cell-based; settings: Hep3B human hepatoma cell, 24 h after administration
Method: as §1, §2

HIF-α = experiment: Western-blot test of HIF-α level in cells; assay type: cell-based, human; settings: Hep3B cell, 50 μM, 250 μM, 24 hours after administration
Method: At the same time, Western-blot test at the cellular level was also carried out for some of the compounds of the present invention.
FIG. 1 is the results of Western-blot test of some compounds at the cellular level (Hep3B cell: human hepatoma cell; the compound concentration: 50 μM, 250 μM, 24 hours after administration)

VEGF [3] = experiment: VEGF level at the animal level (VEGF kit); assay type: in vivo; settings: C57Bl/6 mice, male, 8-9 weeks old; 50 μM; 24 h / 4 h after administration
Method: (§3) The test of the activity of some compounds of the present invention on VEGF at the animal level and EPO at the cellular level is shown as follows. The method is in accordance with Journal of Medicinal Chemistry 55 (2012) 2945-2959, and the test was carried out by using VEGF and EPO kit respectively 4 h after administration.

EPO [4] = experiment: EPO level at the animal level (EPO kit); assay type: in vivo; settings: C57Bl/6 mice, male, 8-9 weeks old; 50 μM; 24 h / 4 h after administration
Method: as §3

Prolyl hydroxylase 2 = Prolyl hydroxylase 2 (Homo sapiens (Human), UniProt Q9GZT9); experiment: Prolyl hydroxylase 2 inhibition, fluorescence polarization method; assay type: biochemical
[5] = fluorescence polarization, read 1 h after adding the drugs, read-out: Prolyl hydroxylase 2 (IC50 nM)
[6] = Table 2 comparison, same test method, same batch, read-out: Prolyl hydroxylase 2 (IC50 nM), example compounds of the present invention

Sequence of Prolyl hydroxylase 2 (Q9GZT9 whole entry): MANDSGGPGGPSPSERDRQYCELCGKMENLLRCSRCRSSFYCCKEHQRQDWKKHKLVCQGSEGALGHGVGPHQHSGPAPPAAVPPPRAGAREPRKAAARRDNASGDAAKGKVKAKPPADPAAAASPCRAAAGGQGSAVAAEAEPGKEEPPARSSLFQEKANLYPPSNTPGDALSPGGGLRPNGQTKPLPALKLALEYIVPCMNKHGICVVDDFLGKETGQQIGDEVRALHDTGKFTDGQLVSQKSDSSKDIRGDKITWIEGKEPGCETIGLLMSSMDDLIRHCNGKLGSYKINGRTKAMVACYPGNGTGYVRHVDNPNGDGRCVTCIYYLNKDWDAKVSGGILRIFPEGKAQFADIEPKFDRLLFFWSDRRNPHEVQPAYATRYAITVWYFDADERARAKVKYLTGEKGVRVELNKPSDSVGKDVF

Compound | Whether it can increase the expression of VEGF in cells (VEGF [1]) | Whether it can increase the expression of EPO in cells (EPO [2]) | Whether it can increase the level of HIF-α in cells (HIF-α) | increased level of VEGF at the animal level (FIG. 2) (VEGF [3]) | increased level of EPO at the animal level (FIG. 2) (EPO [4]) | IC50 (Prolyl hydroxylase 2; [5]) | IC50 (Prolyl hydroxylase 2; [6])
Cc1cccc(OCC#Cc2cnc(C(=O)NCC(=O)O)c(O)c2)c1C [Example 38, 2-(3-Hydroxy-5-(3-(2,3-dimethylphenyl)oxypropyn-1-yl))picolinamido acetic acid] | Yes | Yes | Yes |  |  |  | 
Cc1cccc(C#Cc2cnc(C(=O)NCC(=O)O)c(O)c2)c1 [Example 14, 2-(3-Hydroxy-5-m-methylphenylethynyl)picolinamido acetic acid] | Yes | Yes | Yes | increased level | increased level |  | 
O=C(O)CNC(=O)c1ncc(C#CCOc2ccc(F)cc2)cc1O [Example 47, 2-(3-Hydroxy-5-(3-p-fluorophenoxypropyn-1-yl))picolinamido acetic acid] | Yes | Yes |  | increased level | increased level | 187 ± 8.3 nM | 
Cc1nc(C(=O)NCC(=O)O)c(O)c2ccc(Oc3ccccc3)cc12 [FG-4592, reference compound] | Yes | Yes |  | increased level | increased level |  | 
Cc1ccccc1OCC#Cc1cnc(C(=O)NCC(=O)O)c(O)c1 [Example 35] | Yes | Yes |  |  |  | 70.4 ± 0.6 nM | 
O=C(O)CNC(=O)c1ncc(C#CCOc2ccc(Cl)cc2)cc1O [Example 44, 2-(3-Hydroxy-5-(3-p-chlorophenoxypropyn-1-yl))picolinamido acetic acid] | Yes | Yes | Yes |  |  | 13.7 ± 1.1 nM | 13.7 ± 1.1 nM
CC(C)(C)C#Cc1cnc(C(=O)NCC(=O)O)c(O)c1 [Example 3, 2-(3-Hydroxy-5-tert-butylethynyl)picolinamido acetic acid] | Yes | Yes |  |  |  | 1220 ± 56 nM | 
O=C(O)CNC(=O)c1ncc(C#Cc2ccc(F)cc2)cc1O [Example 15, 2-(3-Hydroxy-5-p-fluorophenylethynyl)picolinamido acetic acid] | Yes | Yes | Yes | increased level | increased level |  | 
Cc1ccc(OCC#Cc2cnc(C(=O)NCC(=O)O)c(O)c2)cc1 [Example 34, 2-(3-Hydroxy-5-(3-p-tolyloxypropyn-1-yl))picolinamido acetic acid] | Yes | Yes | Yes |  |  | 110 ± 22 nM | 
O=C(O)CNC(=O)c1ncc(C#CCNc2ccc(Cl)cc2)cc1O [Example 65] | Yes | Yes | Yes |  |  |  | 
O=C(O)CNC(=O)c1ncc(C#CCOc2ccc(-c3ccccc3)cc2)cc1O [Example 57, 2-(3-Hydroxy-5-(3-p-phenylphenoxypropyn-1-yl))picolinamido acetic acid] | Yes | Yes |  |  |  | 540 ± 3.6 nM | 
O=C(O)CNC(=O)c1ncc(C#CCOc2ccccc2)cc1O [Example 33, 2-(3-Hydroxy-5-(3-phenoxypropyn-1-yl))picolinamido acetic acid] | Yes | Yes |  |  |  | 169.5 ± 0.5 nM | 169.5 ± 0.5 nM

From patent US10889546B2, “Alkynyl pyridine prolyl hydroxylase inhibitor, and preparation method and medical use thereof” (Jiangsu Hengrui Medicine Co., Ltd., priority 2015, dated 2021)
